Data taken from patent US9951149B2, “Reversible heparin molecules and methods of making and using the same” (The University of North Carolina at Chapel Hill, priority 2013, dated 2018).
Entries after “also recorded” stand apart in the source; their conditions may differ.

Legend:
[1] = Clearance of LMWHs in vivo: retention of 35S-labeled material in mouse liver; conditions: BALB/c mice, lateral tail vein injection, 12 min (FIG. 4A)
Description: The mouse experiment was approved by the University of Nebraska Animal Care and Use Committees. Five to six week old BALB/c mice (Harlan Laboratories, Indianapolis, Ind., United States of America) weighing 18-20 g were anesthetized in a small 34° C. chamber with a flow of oxygen containing 4% isoflurane. Once the mice were unconscious, they were individually placed on a heated pad with a nose cone fitted over their snout with a constant flow of oxygen containing 2% isoflurane. A specific amount of ^35S-labeled LMWH Compound, LMWH, or UFH was injected via the lateral tail vein using a 27G1/2 needle mounted on a 1 ml syringe. The labeled material was allowed to circulate in the blood for 12 min while the mouse lay unconscious. The abdominal cavity was exposed by incision and the liver was collected, washed, and weighed. Approximately 100 mg from each of the lobes was homogenized in 0.75 ml 1% NP-40 and then centrifuged at 12,000×g for 2 min to pellet insoluble material. The supernatant was then added to 4 ml scintillation fluid, mixed for 30 min by rocking and then radioactivity was assessed by a Beckman Coulter LS6500 scintillation counter. The data is presented as the percentage of CPM in total liver divided by total CPM injected±standard error of 3-5 mice per ligand.

[2] = target: T1, Stabilin-2 receptor (190-HARE) (Homo sapiens, UniProt Q8WWQ8); test: Stabilin-2 mediated endocytosis of 35S-labeled LMWHs in Flp-In-293 cells; type: cell-based; conditions: Flp-In-293 cells expressing 190-HARE, 3 h at 37° C. (FIG. 5)
T1 construct: The Stabilin-2 cell line expressing the 190-HARE; expressed in transfected cells
T1 sequence (Q8WWQ8 1136-2551 limits assumed): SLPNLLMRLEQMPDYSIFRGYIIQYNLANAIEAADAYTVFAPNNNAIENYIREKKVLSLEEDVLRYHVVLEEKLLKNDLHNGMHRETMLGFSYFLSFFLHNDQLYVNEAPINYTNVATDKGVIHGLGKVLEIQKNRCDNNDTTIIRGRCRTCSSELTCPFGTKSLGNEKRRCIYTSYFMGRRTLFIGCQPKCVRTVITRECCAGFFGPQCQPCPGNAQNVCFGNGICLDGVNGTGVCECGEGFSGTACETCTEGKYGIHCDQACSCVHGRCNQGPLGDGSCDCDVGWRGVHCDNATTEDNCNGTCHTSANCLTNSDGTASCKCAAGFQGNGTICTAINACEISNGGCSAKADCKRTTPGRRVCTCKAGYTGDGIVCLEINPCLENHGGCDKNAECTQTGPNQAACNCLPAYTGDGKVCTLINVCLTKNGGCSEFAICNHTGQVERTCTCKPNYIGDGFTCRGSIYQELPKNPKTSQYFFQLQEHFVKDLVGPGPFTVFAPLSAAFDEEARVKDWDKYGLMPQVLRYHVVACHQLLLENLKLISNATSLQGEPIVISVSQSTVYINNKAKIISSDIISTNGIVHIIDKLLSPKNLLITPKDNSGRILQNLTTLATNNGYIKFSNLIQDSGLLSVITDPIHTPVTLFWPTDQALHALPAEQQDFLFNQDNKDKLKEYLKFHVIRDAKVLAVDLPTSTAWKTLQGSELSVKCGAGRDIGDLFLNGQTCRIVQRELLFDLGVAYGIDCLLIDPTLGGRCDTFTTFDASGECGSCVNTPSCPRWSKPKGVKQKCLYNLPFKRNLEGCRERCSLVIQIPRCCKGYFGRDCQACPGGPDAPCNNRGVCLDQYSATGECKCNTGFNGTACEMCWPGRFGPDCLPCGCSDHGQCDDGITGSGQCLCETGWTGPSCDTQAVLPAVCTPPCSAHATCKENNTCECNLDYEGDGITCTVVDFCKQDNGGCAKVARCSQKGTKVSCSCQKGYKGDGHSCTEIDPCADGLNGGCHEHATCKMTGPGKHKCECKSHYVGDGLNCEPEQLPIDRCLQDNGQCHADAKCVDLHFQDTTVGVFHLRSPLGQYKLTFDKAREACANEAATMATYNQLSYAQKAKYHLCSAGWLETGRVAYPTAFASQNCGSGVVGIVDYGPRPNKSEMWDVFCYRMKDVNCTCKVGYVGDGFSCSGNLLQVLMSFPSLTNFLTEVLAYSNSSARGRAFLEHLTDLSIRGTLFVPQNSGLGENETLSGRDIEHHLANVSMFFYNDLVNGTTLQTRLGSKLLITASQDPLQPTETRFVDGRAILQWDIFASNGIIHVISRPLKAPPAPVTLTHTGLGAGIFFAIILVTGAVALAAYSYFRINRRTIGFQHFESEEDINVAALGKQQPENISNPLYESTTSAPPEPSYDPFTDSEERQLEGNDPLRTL
Description: FIG. 5 is a histogram of endocytosis of ^35S-labeled synthetic LMWHs in Flp-In-293 cells. The cells were stably transfected with the plasmid expressing the Stabilin-2 receptor (190-HARE). The internalization value was calculated by subtracting the nonspecific internalization background from the total internalization of a ^35S-labeled Compound. The background was determined by mixing the ^35S-labeled Compound with at least 100-fold molecular excess of unlabeled UFH.
The Stabilin-2 cell line expressing the 190-HARE (Harris et al., J. Biol. Chem. 279, 36201-36209, 2004) was grown to 90% confluency with DMEM+8% FBS+50 μgml^−1 Hygromycin B in 24-well plates for at least 2 days prior to the experiment in a standard tissue culture incubator. Endocytosis medium (DMEM+0.05% BSA) containing a known amount of ^35S-labeled LMWH Compound, LOVENOX®, or UFH was added to each well in triplicate and allowed to incubate with the cells for 3 h at 37° C., 5% CO2. Receptor specific internalization was assessed by incubating each radiolabeled ligand with at least a 100-fold excess of unlabeled UFH. The cells were then washed with Hank's Balanced Salt Solution (1.26 mM CaCl2, 5.33 mM KCl, 0.44 mM KH2PO4, 0.5 mM MgCl2-6H2O, 0.41 mM MgSO4-7H2O, 138 mM NaCl, 4.0 mM NaHCO3, […], 0.3 mM phenol red, pH 7.2) three-times, and cells were lysed in 0.4 ml 0.3 N NaOH. 0.35 ml of the cell lysate mixture was mixed with 4 ml scintillation fluid (Perkin Elmer, Waltham, Mass., United States of America) and radioactivity was measured by a Beckman Coulter LS6500 scintillation counter. The remaining 0.05 ml cell lysate was used to determine protein levels using the Bradford reagent (Sigma-Aldrich). The data was calculated as the percentage of specific CPM internalized of the total amount added per μg cell lysate protein±standard deviation.

Compound	endocytosis mediated by Stabilin-2 (internalization) [2]	retention in the liver [1]
CC(=O)NC1C(OC2C(C(=O)O)OC(OC3C(COS(=O)(=O)O)OC(OC4C(C(=O)O)OC(OC5C(COS(=O)(=O)O)OC(OC6C(C(=O)O)OC(OC7C(COS(=O)(=O)O)OC(OC8C(C(=O)O)OC(OC9C(COS(=O)(=O)O)OC(OC%10C(C(=O)O)OC(OC%11C(COS(=O)(=O)O)OC(OC%12C(C(=O)O)OC(Oc%13ccc([N+](=O)[O-])cc%13)C(O)C%12O)C(NS(=O)(=O)O)C%11O)C(OS(=O)(=O)O)C%10O)C(NS(=O)(=O)O)C9O)C(OS(=O)(=O)O)C8O)C(NS(=O)(=O)O)C7O)C(OS(=O)(=O)O)C6O)C(NS(=O)(=O)O)C5O)C(OS(=O)(=O)O)C4O)C(NS(=O)(=O)O)C3OS(=O)(=O)O)C(O)C2O)OC(COS(=O)(=O)O)C(O)C1O (stereo not shown) [Compound 4]	significant endocytosis	retained in the liver; also recorded: internalized in mice liver
CC(=O)NC1C(OC2C(C(=O)O)OC(OC3C(COS(=O)(=O)O)OC(OC4C(C(=O)O)OC(OC5C(COS(=O)(=O)O)OC(OC6C(C(=O)O)OC(OC7C(COS(=O)(=O)O)OC(OC8C(C(=O)O)OC(OC9C(COS(=O)(=O)O)OC(OC%10C(C(=O)O)OC(OC%11C(COS(=O)(=O)O)OC(OC%12C(C(=O)O)OC(Oc%13ccc([N+](=O)[O-])cc%13)C(O)C%12O)C(NS(=O)(=O)O)C%11O)C(OS(=O)(=O)O)C%10O)C(NS(=O)(=O)O)C9OS(=O)(=O)O)C(OS(=O)(=O)O)C8O)C(NS(=O)(=O)O)C7O)C(OS(=O)(=O)O)C6O)C(NS(=O)(=O)O)C5O)C(OS(=O)(=O)O)C4O)C(NS(=O)(=O)O)C3OS(=O)(=O)O)C(O)C2O)OC(COS(=O)(=O)O)C(O)C1O (stereo not shown) [Compound 5]	significant endocytosis	retained in the liver; also recorded: internalized in mice liver

Now from value to molecule, other results behind:

endocytosis mediated by Stabilin-2 (internalization) [2]	Compound	retention in the liver [1]
very low internalization	O=C(O)C1OC(OC2C(COS(=O)(=O)O)OC(OC3C(C(=O)O)OC(OC4C(COS(=O)(=O)O)OC(OC5C(C(=O)O)OC(Oc6ccc([N+](=O)[O-])cc6)C(O)C5O)C(NS(=O)(=O)O)C4O)C(OS(=O)(=O)O)C3O)C(NS(=O)(=O)O)C2OS(=O)(=O)O)C(O)C(O)C1OC1OC(COS(=O)(=O)O)C(O)C(O)C1NS(=O)(=O)O (stereo not shown) [Compound 1]	very low level of retention in the liver
very low internalization	O=C(O)C1OC(OC2C(COS(=O)(=O)O)OC(OC3C(C(=O)O)OC(OC4C(COS(=O)(=O)O)OC(OC5C(C(=O)O)OC(OC6C(COS(=O)(=O)O)OC(OC7C(C(=O)O)OC(Oc8ccc([N+](=O)[O-])cc8)C(O)C7O)C(NS(=O)(=O)O)C6O)C(OS(=O)(=O)O)C5O)C(NS(=O)(=O)O)C4O)C(OS(=O)(=O)O)C3O)C(NS(=O)(=O)O)C2OS(=O)(=O)O)C(O)C(O)C1OC1OC(COS(=O)(=O)O)C(O)C(O)C1NS(=O)(=O)O (stereo not shown) [Compound 2]	very low level of retention in the liver
significant endocytosis	O=C(O)C1OC(OC2C(COS(=O)(=O)O)OC(OC3C(C(=O)O)OC(OC4C(COS(=O)(=O)O)OC(OC5C(C(=O)O)OC(OC6C(COS(=O)(=O)O)OC(OC7C(C(=O)O)OC(OC8C(COS(=O)(=O)O)OC(OC9C(C(=O)O)OC(Oc%10ccc([N+](=O)[O-])cc%10)C(O)C9O)C(NS(=O)(=O)O)C8O)C(OS(=O)(=O)O)C7O)C(NS(=O)(=O)O)C6O)C(OS(=O)(=O)O)C5O)C(NS(=O)(=O)O)C4O)C(OS(=O)(=O)O)C3O)C(NS(=O)(=O)O)C2OS(=O)(=O)O)C(O)C(O)C1OC1OC(COS(=O)(=O)O)C(O)C(O)C1NS(=O)(=O)O (stereo not shown) [Compound 3]	retained in the liver; also recorded: internalized in mice liver
